Molecular target: T1, PDE4B (human recombinant) (Homo sapiens, UniProt Q07343)
T1 construct: made in house
Assay: PDE4B inhibition, radioactive SPA and/or IMAP fluorescence polarisation (FP) assay
Type: biochemical
Settings: comparators: Examples 6, 7, 29, 26, 64, 126, 124, 170, 177
Description: Human recombinant PDE4B, in particular the 2B splice variant thereof (HSPDE4B2B), is disclosed in WO 94/20079 and also M. M. McLaughlin et al., “A low Km, rolipram-sensitive, cAMP-specific phosphodiesterase from human brain: cloning and expression of cDNA, biochemical characterisation of recombinant protein, and tissue distribution of mRNA”, J. Biol. Chem., 1993, 268, 6470-6476. For example, in Example 1 of WO 94/20079, human recombinant PDE4B is described as being expressed in the PDE-deficient yeast Saccharomyces cerevisiae strain GL62, e.g. after induction by addition of 150 uM CuSO4, and 100,000×g supernatant fractions of yeast cell lysates are described for use in the harvesting of PDE4B enzyme.
The ability of compounds to inhibit catalytic activity at PDE4B or 4D (human recombinant), PDE3 (from bovine aorta), PDE5 (human recombinant) or PDE6 (from bovine retina) can optionally be determined by Scintillation Proximity Assay (SPA) in 96-well format.
Test compounds (as a solution in DMSO, preferably about 2 microlitre (ul) volume of DMSO solution) are preincubated at ambient temperature (room temperature, e.g. 19-23° C.) in Wallac Isoplates (code 1450-514) with PDE enzyme in 50 mM Tris-HCl buffer pH 7.5, 8.3 mM MgCl2, 1.7 mM EGTA, 0.05% (w/v) bovine serum albumin for 10-30 minutes (usually 30 minutes). The enzyme concentration is adjusted so that no more than 20% hydrolysis of the substrate defined below occurs in control wells without compound, during the incubation. For the PDE3, PDE4B and PDE4D assays, [5′,8-3H]Adenosine 3′,5′-cyclic phosphate (Amersham Pharmacia Biotech, code TRK.559; or Amersham Biosciences UK Ltd, Pollards Wood, Chalfont St Giles, Buckinghamshire HP8 4SP, UK) is added to give 0.05 uCi per well and about 10 nM final concentration. For the PDE5 and PDE6 assays, [8-^3H]Guanosine 3′,5′-cyclic phosphate (Amersham Pharmacia Biotech, code TRK.392) is added to give 0.05 uCi per well and about 36 nM final concentration. Plates containing assay mixture, preferably approx. 100 ul volume of assay mixture, are mixed on an orbital shaker for 5 minutes and incubated at ambient temperature for 1 hour. Phosphodiesterase SPA beads (Amersham Pharmacia Biotech, code RPNQ 0150) are added (about 1 mg per well) to terminate the assay. Plates are sealed and shaken and allowed to stand at ambient temperature for 35 minutes to 1 hour (preferably 35 minutes) to allow the beads to settle. Bound radioactive product is measured using a WALLAC TRILUX 1450 Microbeta scintillation counter. For inhibition curves, 10 concentrations (1.5 nM-30 uM) of each compound are assayed. Curves are analysed using ActivityBase and XLfit (ID Business Solutions Limited, 2 Ocean Court, Surrey Research Park, Guildford, Surrey GU2 7QB, United Kingdom) Results are expressed as pIC50 values.
The ability of compounds to inhibit catalytic activity at PDE4B (human recombinant) or PDE4D (human recombinant) can optionally be determined by IMAP Fluorescence Polarisation (FP) assay (IMAP Explorer kit, available from Molecular Devices Corporation, Sunnydale, Calif., USA; Molecular Devices code: R8062) in 384-well format.
The IMAP FP assay is able to measure PDE activity in an homogenous, non-radioactive assay format. The FP assay uses the ability of immobilised trivalent metal cations, coated onto nanoparticles (tiny beads), to bind the phosphate group of Fl-AMP that is produced on the hydrolysis of fluorescein-labelled (Fl) cyclic adenosine mono-phosphate (Fl-cAMP) to the non-cyclic Fl-AMP form. […] Binding of Fl-AMP product to the beads (coated with the immobilised trivalent cations) slows the rotation of the bound Fl-AMP and leads to an increase in the fluorescence polarisation ratio of parallel to perpendicular light. Inhibition of the PDE reduces/inhibits this signal increase. […]

T1 sequence (Q07343 1-564 isoform Q07343-2): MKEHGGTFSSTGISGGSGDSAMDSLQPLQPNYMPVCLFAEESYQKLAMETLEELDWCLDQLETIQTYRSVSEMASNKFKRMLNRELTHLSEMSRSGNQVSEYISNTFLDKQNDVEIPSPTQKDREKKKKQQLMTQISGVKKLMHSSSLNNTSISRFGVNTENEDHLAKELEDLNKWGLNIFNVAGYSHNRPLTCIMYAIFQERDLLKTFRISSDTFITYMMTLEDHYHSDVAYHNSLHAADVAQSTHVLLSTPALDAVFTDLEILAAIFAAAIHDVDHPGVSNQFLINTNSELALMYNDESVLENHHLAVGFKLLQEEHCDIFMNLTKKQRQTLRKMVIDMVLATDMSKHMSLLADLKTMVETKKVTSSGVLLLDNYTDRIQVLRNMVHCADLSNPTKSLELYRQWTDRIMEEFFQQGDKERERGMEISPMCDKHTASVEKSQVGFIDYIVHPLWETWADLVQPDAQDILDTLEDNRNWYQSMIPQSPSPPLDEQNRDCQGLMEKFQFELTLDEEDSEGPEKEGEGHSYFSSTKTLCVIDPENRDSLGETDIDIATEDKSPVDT

**Q.** How did the “PDE4B inhibitory activity compared with the comparable Example of opposite stereochemistry at the CR4R5 (benzylic) carbon atom” value turn out when `CCn1ncc2c(NC3CCOCC3)c(C(=O)N[C@H](C)c3ccccc3)cnc21` [Example 8, 1-ethyl-N-[(1R)-1-phenylethyl]-4-(tetrahydro-2H-pyran-4-ylamino)-1H-pyrazolo[3,4-b]pyridine-5-carboxamide] was run?
**A.** greater PDE4B inhibitory activity

**Q.** `CCn1ncc2c(NC3CCOCC3)c(C(=O)N[C@H](COC)c3ccccc3)cnc21` [Example 24, 1-ethyl-N-[(1S)-2-(methyloxy)-1-phenylethyl]-4-(tetrahydro-2H-pyran-4-ylamino)-1H-pyrazolo[3,4-b]pyridine-5-carboxamide] was tested. Which “PDE4B inhibitory activity compared with the comparable Example of opposite stereochemistry at the CR4R5 (benzylic) carbon atom” value did it give?
**A.** greater PDE4B inhibitory activity

**Q.** How did the “PDE4B inhibitory activity compared with the comparable Example of opposite stereochemistry at the CR4R5 (benzylic) carbon atom” value turn out when `CCn1ncc2c(NC3CCOCC3)c(C(=O)N[C@H](CO)c3ccccc3)cnc21` [Example 28, 1-ethyl-N-[(1S)-2-hydroxy-1-phenylethyl]-4-(tetrahydro-2H-pyran-4-ylamino)-1H-pyrazolo[3,4-b]pyridine-5-carboxamide] was run?
**A.** greater PDE4B inhibitory activity

**Q.** Which “PDE4B inhibitory activity compared with the comparable Example of opposite stereochemistry at the CR4R5 (benzylic) carbon atom” value does the source give for `CCn1ncc2c(NC3CCOCC3)c(C(=O)N[C@H](C)c3ccc(OC)cc3)cnc21` [Example 63, 1-ethyl-N-{(1R)-1-[4-(methyloxy)phenyl]ethyl}-4-(tetrahydro-2H-pyran-4-ylamino)-1H-pyrazolo[3,4-b]pyridine-5-carboxamide] here?
**A.** greater PDE4B inhibitory activity

**Q.** With `CCn1ncc2c(NC3CCCCC3)c(C(=O)N[C@H](CO)c3ccccc3)cnc21` [Example 127, 4-(cyclohexylamino)-1-ethyl-N-[(1S)-2-hydroxy-1-phenylethyl]-1H-pyrazolo[3,4-b]pyridine-5-carboxamide] as the compound, how does the “PDE4B inhibitory activity compared with the comparable Example of opposite stereochemistry at the CR4R5 (benzylic) carbon atom” value read?
**A.** greater PDE4B inhibitory activity

**Q.** With `CCn1ncc2c(NC3CCCCC3)c(C(=O)N[C@H](COC)c3ccccc3)cnc21` [Example 129, 4-(cyclohexylamino)-1-ethyl-N-[(1S)-2-(methyloxy)-1-phenylethyl]-1H-pyrazolo[3,4-b]pyridine-5-carboxamide] as the compound, how does the “PDE4B inhibitory activity compared with the comparable Example of opposite stereochemistry at the CR4R5 (benzylic) carbon atom” value read?
**A.** greater PDE4B inhibitory activity

**Q.** How did the “PDE4B inhibitory activity compared with the comparable Example of opposite stereochemistry at the CR4R5 (benzylic) carbon atom” value turn out when `CC[C@@H](NC(=O)c1cnc2c(cnn2CC)c1NC1CCN(C(C)=O)CC1)c1ccccc1` [Example 174, 4-[(1-acetyl-4-piperidinyl)amino]-1-ethyl-N-[(1R)-1-phenylpropyl]-1H-pyrazolo[3,4-b]pyridine-5-carboxamide] was run?
**A.** greater PDE4B inhibitory activity

**Q.** With `CCn1ncc2c(NC3CCC(=O)CC3)c(C(=O)N[C@H](C)c3ccc([N+](=O)[O-])cc3)cnc21` [Example 178, 1-ethyl-N-[(1R)-1-(4-nitrophenyl)ethyl]-4-[(4-oxocyclohexyl)amino]-1H-pyrazolo[3,4-b]pyridine-5-carboxamide] as the compound, how does the “PDE4B inhibitory activity compared with the comparable Example of opposite stereochemistry at the CR4R5 (benzylic) carbon atom” value read?
**A.** greater PDE4B inhibitory activity

Same assay, conditions: one reading or average of several (ca. 2-6) readings; SPA and/or FP assay; range given for a group of Examples; read-out: PDE4B pIC50 (±about 0.5) (converted)

**Q.** For `CCn1ncc2c(NC3CCOCC3)c(C(=O)N[C@@H](C)c3ccccc3)cnc21` [Example 7, 1-ethyl-N-[(1S)-1-phenylethyl]-4-(tetrahydro-2H-pyran-4-ylamino)-1H-pyrazolo[3,4-b]pyridine-5-carboxamide], which IC50 is on record?
**A.** 31.6 to 70.8 nM

**Q.** `CCn1ncc2c(NC3CCOCC3)c(C(=O)N[C@H](C)c3ccccc3)cnc21` [Example 8, 1-ethyl-N-[(1R)-1-phenylethyl]-4-(tetrahydro-2H-pyran-4-ylamino)-1H-pyrazolo[3,4-b]pyridine-5-carboxamide] was tested. Which IC50 did it give?
**A.** 0.794 to 5.01 nM

**Q.** With `CCn1ncc2c(NC3CCOCC3)c(C(=O)NC(CCO)c3ccccc3)cnc21` (centres unmarked) [Example 13, 1-ethyl-N-(3-hydroxy-1-phenylpropyl)-4-(tetrahydro-2H-pyran-4-ylamino)-1H-pyrazolo[3,4-b]pyridine-5-carboxamide] as the compound, how does the IC50 read?
**A.** 0.794 to 5.01 nM

**Q.** For `CCn1ncc2c(NC3CCOCC3)c(C(=O)N[C@H](COC)c3ccccc3)cnc21` [Example 24, 1-ethyl-N-[(1S)-2-(methyloxy)-1-phenylethyl]-4-(tetrahydro-2H-pyran-4-ylamino)-1H-pyrazolo[3,4-b]pyridine-5-carboxamide], which IC50 is on record?
**A.** 0.794 to 5.01 nM

**Q.** How did the IC50 turn out when `CCn1ncc2c(NC3CCOCC3)c(C(=O)N[C@@H](C(N)=O)c3ccccc3)cnc21` [Example 25, N-[(1R)-2-amino-2-oxo-1-phenylethyl]-1-ethyl-4-(tetrahydro-2H-pyran-4-ylamino)-1H-pyrazolo[3,4-b]pyridine-5-carboxamide] was run?
**A.** 31.6 to 70.8 nM

**Q.** Which IC50 does the source give for `CCn1ncc2c(NC3CCOCC3)c(C(=O)N[C@@H](CO)c3ccccc3)cnc21` [Example 26, 1-ethyl-N-[(1R)-2-hydroxy-1-phenylethyl]-4-(tetrahydro-2H-pyran-4-ylamino)-1H-pyrazolo[3,4-b]pyridine-5-carboxamide] here?
**A.** 31.6 to 70.8 nM

**Q.** Which IC50 does the source give for `CCn1ncc2c(NC3CCOCC3)c(C(=O)N[C@H](CO)c3ccccc3)cnc21` [Example 28, 1-ethyl-N-[(1S)-2-hydroxy-1-phenylethyl]-4-(tetrahydro-2H-pyran-4-ylamino)-1H-pyrazolo[3,4-b]pyridine-5-carboxamide] here?
**A.** 0.794 to 5.01 nM

**Q.** Which IC50 does the source give for `CCn1ncc2c(NC3CCOCC3)c(C(=O)N[C@@H](COC)c3ccccc3)cnc21` [Example 29, 1-ethyl-N-[(1R)-2-(methyloxy)-1-phenylethyl]-4-(tetrahydro-2H-pyran-4-ylamino)-1H-pyrazolo[3,4-b]pyridine-5-carboxamide] here?
**A.** 31.6 to 70.8 nM

**Q.** `CCn1ncc2c(NC3CCOCC3)c(C(=O)N[C@H](C)c3cccc4ccccc34)cnc21` [Example 37, 1-ethyl-N-[(1R)-1-(1-naphthalenyl)ethyl]-4-(tetrahydro-2H-pyran-4-ylamino)-1H-pyrazolo[3,4-b]pyridine-5-carboxamide] was tested. Which IC50 did it give?
**A.** 12.6 to 25.1 nM

**Q.** Which IC50 does the source give for `CCn1ncc2c(NC3CCOCC3)c(C(=O)N[C@@H](C)c3cccc4ccccc34)cnc21` [Example 38, 1-ethyl-N-[(1S)-1-(1-naphthalenyl)ethyl]-4-(tetrahydro-2H-pyran-4-ylamino)-1H-pyrazolo[3,4-b]pyridine-5-carboxamide] here?
**A.** 12.6 to 25.1 nM

**Q.** Which IC50 does the source give for `CCn1ncc2c(NC3CCOCC3)c(C(=O)NC(C)c3ccc(C)cc3)cnc21` (centres unmarked) [Example 48, 1-ethyl-N-[1-(4-methylphenyl)ethyl]-4-(tetrahydro-2H-pyran-4-ylamino)-1H-pyrazolo[3,4-b]pyridine-5-carboxamide] here?
**A.** 0.1 to 2 nM

**Q.** With `CCn1ncc2c(NC3CCOCC3)c(C(=O)NC(C)c3ccc(Br)cc3)cnc21` (centres unmarked) [Example 50, N-[1-(4-bromophenyl)ethyl]-1-ethyl-4-(tetrahydro-2H-pyran-4-ylamino)-1H-pyrazolo[3,4-b]pyridine-5-carboxamide] as the compound, how does the IC50 read?
**A.** 0.794 to 5.01 nM

**Q.** For `CCn1ncc2c(NC3CCOCC3)c(C(=O)N[C@H](C)c3ccc(OC)cc3)cnc21` [Example 63, 1-ethyl-N-{(1R)-1-[4-(methyloxy)phenyl]ethyl}-4-(tetrahydro-2H-pyran-4-ylamino)-1H-pyrazolo[3,4-b]pyridine-5-carboxamide], which IC50 is on record?
**A.** 0.794 to 5.01 nM

**Q.** With `CCn1ncc2c(NC3CCOCC3)c(C(=O)N[C@@H](C)c3ccc(OC)cc3)cnc21` [Example 64, 1-ethyl-N-{(1S)-1-[4-(methyloxy)phenyl]ethyl}-4-(tetrahydro-2H-pyran-4-ylamino)-1H-pyrazolo[3,4-b]pyridine-5-carboxamide] as the compound, how does the IC50 read?
**A.** 31.6 to 70.8 nM

**Q.** For `CCn1ncc2c(NC3CCOCC3)c(C(=O)N[C@H](C)c3ccc(C)cc3)cnc21` [Example 73, 1-ethyl-N-[(1R)-1-(4-methylphenyl)ethyl]-4-(tetrahydro-2H-pyran-4-ylamino)-1H-pyrazolo[3,4-b]pyridine-5-carboxamide], which IC50 is on record?
**A.** 0.1 to 2 nM

**Q.** How did the IC50 turn out when `CCn1ncc2c(NC3CCOCC3)c(C(=O)N[C@H](C)c3ccc(Br)cc3)cnc21` [Example 75, N-[(1R)-1-(4-bromophenyl)ethyl]-1-ethyl-4-(tetrahydro-2H-pyran-4-ylamino)-1H-pyrazolo[3,4-b]pyridine-5-carboxamide] was run?
**A.** 0.794 to 5.01 nM

**Q.** With `CCC(NC(=O)c1cnc2c(cnn2CC)c1NC1CCOCC1)c1ccc(C)cc1C` (centres unmarked) [Example 98, N-[1-(2,4-dimethylphenyl)propyl]-1-ethyl-4-(tetrahydro-2H-pyran-4-ylamino)-1H-pyrazolo[3,4-b]pyridine-5-carboxamide] as the compound, how does the IC50 read?
**A.** 0.1 to 2 nM

**Q.** Which IC50 does the source give for `CCn1ncc2c(NC3CCCCC3)c(C(=O)N[C@H](C)c3ccc(C)cc3)cnc21` [Example 139, 4-(cyclohexylamino)-1-ethyl-N-[(1R)-1-(4-methylphenyl)ethyl]-1H-pyrazolo[3,4-b]pyridine-5-carboxamide] here?
**A.** 0.1 to 2 nM
